Experiments:
[1] = target: Recombinant human EIF2AK3 (PERK) catalytic domain (amino acids 536-1116) (Homo sapiens (Human), UniProt Q9NZJ5); test: PERK In Vitro Activity Assay (isolated), TR-FRET kinase assay; conditions: isolated PERK enzyme, 1.5 μM ATP, read-out: Biochemical IC50
Description: PERK In Vitro Activity Assay (isolated):
In vitro Inhibition of PERK Enzyme Activity (isolated) Recombinant human EIF2AK2 (PKR) catalytic domain (amino acids 252-551), EIF2AK3 (PERK) catalytic domain (amino acids 536-1116), GFP-eIF2a substrate, and Terbium-labelled phospho-eIF2a antibody is obtained (Invitrogen, Carlsbad, CA).
Express and purify HIS-SUMO-GCN2 catalytic domain (amino acids 584-1019) from E. coli. Perform TR-FRET kinase assays in the absence or presence of inhibitors in a reaction buffer consisting of 50 mM HEPES, pH 7.5, 10 mM MgCb, 1.0 mM EGTA, and 0.01% Brij-35, and 100-200 nM GFP-eIF2a substrate. […] Add test compound, initiate the reaction by addition of enzyme, and incubate at room temperature for 45 minutes. Stop the reaction by addition of EDTA to a final concentration of 10 mM, add Terbium-labelled phospho-eIF2a antibody at a final concentration of 2 nM, and incubate for 90 minutes. Monitor the resulting fluorescence in an EnVison® Multilabel reader (PerkinElmer, Waltham, MA). Determine TR-FRET ratios and the resulting IC50 values using a 4-parameter nonlinear logistic equation as shown: Y=(A+((B−A)/(1+(C/x)AD)))) where, Y=% specific inhibition, A=Bottom of the curve, B=Top of the curve, C=absolute IC50 (concentration causing 50% inhibition), and D=hill slope.

[2] = tested on: eIF2α in HEK293-EGFP-eIF2α cells; test: PERK Cellular Assay (HEK293-EGFP-eIF2α cells, tunicamycin-induced ER stress, TR-FRET); assay type: cell-based; conditions: tunicamycin 2 hours
Protocol: Stable cell lines were created in HEK293 cells using lentiviral particles harboring an expression vector for GFP-eIF2α. Cells were selected using puromycin and enriched using fluorescence activated cell sorting against GFP. HEK293-EGFP-eIF2α cells were plated at 5000 cells/well in 384-well assay plates and incubated overnight at 37° C., 5% CO2. Inhibitor compounds were added to the wells by Echo acoustic dispensing and incubated for 30 minutes at 37° C., 5% CO2 prior to induction of ER stress by addition of tunicamycin to […] for 2 hours. Cells were lysed and TR-FRET was measured in an EnVision plate reader (PerkinElmer). FRET ratio data was normalized to signal from lysates treated with DMSO vehicle control and plotted as percent inhibition against 10-point; 3-fold dilution series of inhibitors. IC50 values were calculated using 4-parameter logistical fitting in XLFit.

Recombinant human EIF2AK3 (PERK) catalytic domain (amino acids 536-1116), sequence (Q9NZJ5 536-1116): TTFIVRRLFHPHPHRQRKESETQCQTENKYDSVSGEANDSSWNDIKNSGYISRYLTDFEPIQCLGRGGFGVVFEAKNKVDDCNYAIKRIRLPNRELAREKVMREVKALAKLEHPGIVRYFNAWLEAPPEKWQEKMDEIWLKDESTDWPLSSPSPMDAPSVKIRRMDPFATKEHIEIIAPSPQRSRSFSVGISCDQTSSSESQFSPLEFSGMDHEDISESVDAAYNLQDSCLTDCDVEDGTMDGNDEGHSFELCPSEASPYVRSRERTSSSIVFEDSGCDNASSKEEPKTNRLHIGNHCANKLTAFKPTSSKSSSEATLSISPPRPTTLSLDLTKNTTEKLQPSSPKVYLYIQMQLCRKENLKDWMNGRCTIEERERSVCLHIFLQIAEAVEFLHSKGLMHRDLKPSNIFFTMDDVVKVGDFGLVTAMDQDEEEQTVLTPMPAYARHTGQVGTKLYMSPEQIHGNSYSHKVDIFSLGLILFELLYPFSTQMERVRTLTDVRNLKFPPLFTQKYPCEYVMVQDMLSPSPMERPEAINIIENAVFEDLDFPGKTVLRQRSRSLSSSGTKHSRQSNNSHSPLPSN

Structure (SMILES) | IC50 [1] | IC50 [2] | IC50 ([2]; 2 h)
[2H]C([2H])([2H])c1nc(-c2ccc(NC(=O)C(O)c3cccc(Cl)c3)cc2C)c2c(N)ncc(Cl)n12 (stereo not drawn) [Example 42, N-[4-[8-amino-5-chloro-3-(trideuteriomethyl)imidazo[1,5-a]pyrazin-1-yl]-3-methyl-phenyl]-2-(3-chlorophenyl)-2-hydroxy-acetamide] | 1 to 25 nM | 1 to 25 nM | 
[2H]C([2H])([2H])c1nc(-c2ccc(NC(=O)C(O)c3cc(F)cc(F)c3)c(F)c2F)c2c(N)ncc(C)n12 (stereo not drawn) [Example 155, N-[4-[8-amino-5-methyl-3-(trideuteriomethyl)imidazo[1,5-a]pyrazin-1-yl]-2,3-difluoro-phenyl]-2-(3,5-difluorophenyl)-2-hydroxy-acetamide] | 1 to 25 nM | 51 to 100 nM | 
[2H]C([2H])([2H])c1nc(-c2ccc(NC(=O)C(O)c3cccc(F)c3)c(F)c2F)c2c(N)nc(C)cn12 (stereo not drawn) [Example 130, N-[4-[8-amino-6-methyl-3-(trideuteriomethyl)imidazo[1,5-a]pyrazin-1-yl]-2,3-difluoro-phenyl]-2-(3-fluoro-phenyl)-2-hydroxy-acetamide] | 1 to 25 nM | 1 to 25 nM | 
Cc1cc(NC(=O)C(O)c2cccc(F)c2)ccc1-c1nc(C)n2c(C(F)(F)F)cnc(N)c12 (stereo not drawn) [Example 27, N-(4-(8-amino-3-methyl-5-(trifluoromethyl)imidazo[1,5-a]pyrazin-1-yl)-3-methylphenyl)-2-(3-fluorophenyl)-2-hydroxyacetamide] | 1 to 25 nM | 251 to 500 nM | 
[2H]C([2H])([2H])c1nc(-c2ccc(NC(=O)C(O)c3cccc(F)c3)c(F)c2F)c2c(N)ncc(C(F)(F)F)n12 (stereo not drawn) [Example 135, N-[4-[8-amino-3-(trideuteriomethyl)-5-(trifluoromethyl)imidazo[1,5-a]pyrazin-1-yl]-2,3-difluoro-phenyl]-2-(3-fluorophenyl)-2-hydroxy-acetamide] | 101 to 250 nM | 501 to 1000 nM | 
[2H]C([2H])([2H])c1nc(-c2ccc(NC(=O)C(O)c3cccc(C(F)(F)F)c3)cc2F)c2c(N)ncc(C)n12 (stereo not drawn) [Example 95, N-[4-[8-amino-5-methyl-3-(trideuteriomethyl)imidazo[1,5-a]pyrazin-1-yl]-3-fluoro-phenyl]-2-hydroxy-2-[3-(trifluoromethyl)phenyl]acetamide] | 1 to 25 nM | 51 to 100 nM | 
[2H]C([2H])([2H])c1nc(-c2ccc(NC(=O)C(O)c3cc(F)cc(F)c3)c(F)c2F)c2c(N)ncc(C(F)(F)F)n12 (stereo not drawn) [Example 158, N-[4-[8-amino-3-(trideuteriomethyl)-5-(trifluoromethyl)imidazo[1,5-a]pyrazin-1-yl]-2,3-difluoro-phenyl]-2-(3,5-difluorophenyl)-2-hydroxy-acetamide] | 1 to 25 nM | 1 to 25 nM | 
[2H]C([2H])([2H])c1nc(-c2ccc(NC(=O)C(O)c3cccc(C)c3)cc2F)c2c(N)ncc(C)n12 (stereo not drawn) [Example 91, N-[4-[8-amino-5-methyl-3-(trideuteriomethyl)imidazo[1,5-a]pyrazin-1-yl]-3-fluoro-phenyl]-2-hydroxy-2-(m-tolyl)acetamide] | 1 to 25 nM | 51 to 100 nM | 
[2H]C([2H])([2H])c1nc(-c2ccc(NC(=O)C(O)c3cccc(F)c3)cc2C)c2c(N)nc(C)cn12 (stereo not drawn) [Example 5, N-(4-(8-amino-6-methyl-3-(trideuteriomethyl)imidazo[1,5-a]pyrazin-1-yl)-3-methylphenyl)-2-(3-fluorophenyl)-2-hydroxyacetamide] | 1 to 25 nM |  | 1 to 25 nM
[2H]C([2H])([2H])c1nc(-c2ccc(NC(=O)C(O)c3cccc(F)c3)c(F)c2F)c2c(N)ncc(Cl)n12 (stereo not drawn) [Example 136, N-[4-[8-amino-5-chloro-3-(trideuteriomethyl)imidazo[1,5-a]pyrazin-1-yl]-2,3-difluoro-phenyl]-2-(3-fluoro-phenyl)-2-hydroxy-acetamide] | 1 to 25 nM | 1 to 25 nM | 
[2H]C([2H])([2H])c1nc(-c2ccc(NC(=O)C(O)c3cccc(C(F)(F)F)c3)c(F)c2F)c2c(N)ncc(Cl)n12 (stereo not drawn) [Example 152, N-[4-[8-amino-5-chloro-3-(trideuteriomethyl)imidazo[1,5-a]pyrazin-1-yl]-2,3-difluoro-phenyl]-2-hydroxy-2-[3-(trifluoromethyl)phenyl]acetamide] | 1 to 25 nM | 1 to 25 nM | 
[2H]C([2H])([2H])c1nc(-c2ccc(NC(=O)C(O)c3cccc(F)c3)c(F)c2F)c2c(N)ncc(Cl)n12 (stereo not drawn) [Example 137, N-[4-[8-amino-5-chloro-3-(trideuteriomethyl)imidazo[1,5-a]pyrazin-1-yl]-2,3-difluoro-phenyl]-2-(3-fluoro-phenyl)-2-hydroxy-acetamide] | 1 to 25 nM | 251 to 500 nM | 
[2H]C([2H])([2H])c1nc(-c2ccc(NC(=O)C(O)c3cccc(C(F)(F)F)c3)cc2C)c2c(N)nc(C)cn12 (stereo not drawn) [Example 15, N-[4-[8-amino-6-methyl-3-(trideuteriomethyl)imidazo[1,5-a]pyrazin-1-yl]-3-methyl-phenyl]-2-hydroxy-2-[3-(trifluoromethyl)phenyl]acetamide] | 101 to 250 nM | 251 to 500 nM | 
[2H]C([2H])([2H])c1nc(-c2ccc(NC(=O)C(O)c3cccc(Cl)c3)cc2F)c2c(N)nc(C)cn12 (stereo not drawn) [Example 81, N-[4-[8-amino-6-methyl-3-(trideuteriomethyl)imidazo[1,5-a]pyrazin-1-yl]-3-fluoro-phenyl]-2-(3-chlorophenyl)-2-hydroxy-acetamide] | 1 to 25 nM | 101 to 250 nM | 
[2H]C([2H])([2H])c1nc(-c2ccc(NC(=O)C(O)c3cc(F)cc(F)c3)cc2F)c2c(N)ncc(Cl)n12 (stereo not drawn) [Example 108, N-[4-[8-amino-5-chloro-3-(trideuteriomethyl)imidazo[1,5-a]pyrazin-1-yl]-3-fluoro-phenyl]-2-(3,5-difluoro-phenyl)-2-hydroxy-acetamide] | 1 to 25 nM |  | 1 to 25 nM
[2H]C([2H])([2H])c1nc(-c2ccc(NC(=O)C(O)c3cccc(Cl)c3)cc2C)c2c(N)ncc(C)n12 (stereo not drawn) [Example 37, N-[4-[8-amino-5-methyl-3-(trideuteriomethyl)imidazo[1,5-a]pyrazin-1-yl]-3-methyl-phenyl]-2-(3-chlorophenyl)-2-hydroxy-acetamide] | 1 to 25 nM | 51 to 100 nM | 
[2H]C([2H])([2H])c1nc(-c2ccc(NC(=O)C(O)c3cccc(Cl)c3)c(F)c2F)c2c(N)ncc(C)n12 (stereo not drawn) [Example 138, N-[4-[8-amino-5-methyl-3-(trideuteriomethyl)imidazo[1,5-a]pyrazin-1-yl]-2,3-difluoro-phenyl]-2-(3-chloro-phenyl)-2-hydroxy-acetamide] | 1 to 25 nM | 1 to 25 nM | 
[2H]C([2H])([2H])c1nc(-c2ccc(NC(=O)C(O)c3cccc(F)c3)cc2F)c2c(N)ncc(C(F)(F)F)n12 (stereo not drawn) [Example 76, N-[4-[8-amino-3-(trideuteriomethyl)-5-(trifluoromethyl)imidazo[1,5-a]pyrazin-1-yl]-3-fluoro-phenyl]-2-(3-fluorophenyl)-2-hydroxy-acetamide] | 1 to 25 nM | 1 to 25 nM | 
[2H]C([2H])([2H])c1nc(-c2ccc(NC(=O)C(O)c3cccc(C(F)(F)F)c3)cc2C)c2c(N)ncc(C(F)(F)F)n12 (stereo not drawn) [Example 20, N-[4-[8-amino-3-(trideuteriomethyl)-5-(trifluoromethyl)imidazo[1,5-a]pyrazin-1-yl]-3-methyl-phenyl]-2-hydroxy-2-[3-(trifluoromethyl)phenyl]acetamide] | 1 to 25 nM | 26 to 50 nM | 
[2H]C([2H])([2H])c1nc(-c2ccc(NC(=O)C(O)c3cc(F)cc(C(F)(F)F)c3)c(F)c2F)c2c(N)ncc(C(F)(F)F)n12 (stereo not drawn) [Example 163, N-[4-[8-amino-3-(trideuteriomethyl)-5-(trifluoromethyl)imidazo[1,5-a]pyrazin-1-yl]-2,3-difluoro-phenyl]-2-[3-fluoro-5-(trifluoromethyl)phenyl]-2-hydroxy-acetamide] | 251 to 500 nM | 251 to 500 nM | 
[2H]C([2H])([2H])c1nc(-c2ccc(NC(=O)C(O)c3cc(F)cc(C(F)(F)F)c3)cc2F)c2c(N)ncc(Cl)n12 (stereo not drawn) [Example 115, N-[4-[8-amino-5-chloro-3-(trideuteriomethyl)imidazo[1,5-a]pyrazin-1-yl]-3-fluoro-phenyl]-2-[3-fluoro-5-(trifluoromethyl)phenyl]-2-hydroxy-acetamide] | 1 to 25 nM | 26 to 50 nM | 

Source: patent US12331054B2, “Perk inhibiting imidazolopyrazine compounds” (HiberCell, Inc., priority 2019, dated 2025)
